Test results reported in ChEMBL document CHEMBL1128892, “Pharmacological evaluation of UK-14,304 analogs at cloned human adrenergic receptors” (Bioorg Med Chem Lett, 1995).
Active and inactive are the calls of the source. The calls are words filed in the database; no cut-off is given here.

Columns and labels:
[1] = biological target: T1, Alpha-2C adrenergic receptor (Homo sapiens) (UniProt P18825); experiment: Inhibitory activity against Alpha-2C adrenergic receptor relative to norepinephrine
T1 sequence (whole entry): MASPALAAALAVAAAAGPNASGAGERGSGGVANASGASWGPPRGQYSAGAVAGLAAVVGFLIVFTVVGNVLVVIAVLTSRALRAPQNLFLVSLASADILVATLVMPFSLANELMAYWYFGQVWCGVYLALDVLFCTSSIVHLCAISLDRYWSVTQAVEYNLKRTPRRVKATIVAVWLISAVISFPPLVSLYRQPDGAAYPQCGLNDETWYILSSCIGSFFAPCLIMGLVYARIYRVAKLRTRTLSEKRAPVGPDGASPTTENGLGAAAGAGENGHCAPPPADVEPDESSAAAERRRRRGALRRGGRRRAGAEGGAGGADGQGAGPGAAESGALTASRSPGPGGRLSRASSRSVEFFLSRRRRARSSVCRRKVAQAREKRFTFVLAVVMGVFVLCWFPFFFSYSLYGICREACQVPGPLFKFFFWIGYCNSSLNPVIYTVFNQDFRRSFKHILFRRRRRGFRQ

[2] = biological target: T2, Alpha-1B adrenergic receptor (Homo sapiens, UniProt P35368); experiment: Binding affinity for human Alpha-1B adrenergic receptor from cultured LM(tk-) cells using [3H]prazosin
T2 sequence (P35368 whole entry): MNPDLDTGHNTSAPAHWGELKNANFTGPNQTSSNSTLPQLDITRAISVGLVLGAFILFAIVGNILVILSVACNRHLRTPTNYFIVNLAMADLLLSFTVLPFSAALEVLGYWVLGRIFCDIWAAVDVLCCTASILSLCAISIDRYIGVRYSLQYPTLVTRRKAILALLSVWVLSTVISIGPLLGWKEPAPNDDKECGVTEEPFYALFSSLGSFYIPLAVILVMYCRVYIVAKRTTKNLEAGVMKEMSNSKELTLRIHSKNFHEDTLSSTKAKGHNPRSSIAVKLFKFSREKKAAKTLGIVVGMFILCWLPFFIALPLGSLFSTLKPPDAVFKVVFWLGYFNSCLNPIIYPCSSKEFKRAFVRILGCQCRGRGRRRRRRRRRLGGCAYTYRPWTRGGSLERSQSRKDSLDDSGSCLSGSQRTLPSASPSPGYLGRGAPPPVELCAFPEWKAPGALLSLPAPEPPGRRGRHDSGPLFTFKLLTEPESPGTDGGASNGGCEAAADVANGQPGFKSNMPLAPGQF

[3] = biological target: T3, Alpha-2A adrenergic receptor (Homo sapiens) (UniProt P08913); experiment: Inhibitory activity against Alpha-2A adrenergic receptor relative to norepinephrine
T3 sequence (whole entry): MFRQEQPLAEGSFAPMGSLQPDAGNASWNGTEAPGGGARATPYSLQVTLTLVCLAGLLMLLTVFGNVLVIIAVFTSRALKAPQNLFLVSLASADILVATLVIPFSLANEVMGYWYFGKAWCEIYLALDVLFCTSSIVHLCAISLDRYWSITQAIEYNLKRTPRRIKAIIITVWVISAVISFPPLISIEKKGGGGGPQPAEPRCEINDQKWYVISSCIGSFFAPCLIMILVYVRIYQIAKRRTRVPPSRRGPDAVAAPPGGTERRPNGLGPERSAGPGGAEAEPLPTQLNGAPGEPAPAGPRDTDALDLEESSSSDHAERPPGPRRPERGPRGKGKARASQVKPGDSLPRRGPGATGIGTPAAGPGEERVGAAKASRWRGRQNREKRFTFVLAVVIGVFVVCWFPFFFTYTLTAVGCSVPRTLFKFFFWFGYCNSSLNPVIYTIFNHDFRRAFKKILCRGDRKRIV

[4] = biological target: T4, Alpha-1D adrenergic receptor (Homo sapiens, UniProt P25100); experiment: Binding affinity for human Alpha-1D adrenergic receptor from cultured LM(tk-) cells using [3H]- prazosin
T4 sequence (P25100 whole entry): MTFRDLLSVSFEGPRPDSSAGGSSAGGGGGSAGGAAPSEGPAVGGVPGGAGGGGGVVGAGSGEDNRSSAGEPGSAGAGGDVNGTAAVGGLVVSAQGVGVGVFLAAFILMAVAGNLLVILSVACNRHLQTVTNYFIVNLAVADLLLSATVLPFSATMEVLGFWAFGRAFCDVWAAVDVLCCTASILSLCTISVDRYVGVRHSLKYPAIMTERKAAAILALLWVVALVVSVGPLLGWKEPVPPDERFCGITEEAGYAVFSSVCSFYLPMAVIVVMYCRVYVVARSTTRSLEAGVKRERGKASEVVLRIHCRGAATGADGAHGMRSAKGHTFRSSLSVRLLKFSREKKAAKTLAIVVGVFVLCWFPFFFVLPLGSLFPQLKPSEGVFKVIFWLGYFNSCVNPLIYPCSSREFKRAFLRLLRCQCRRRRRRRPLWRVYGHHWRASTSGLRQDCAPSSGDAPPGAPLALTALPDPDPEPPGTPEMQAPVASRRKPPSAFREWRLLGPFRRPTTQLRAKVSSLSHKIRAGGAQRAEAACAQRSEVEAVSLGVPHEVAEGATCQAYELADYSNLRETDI

[5] = biological target: T5, Alpha-2B adrenergic receptor (Homo sapiens, UniProt P18089); experiment: Alpha-2B adrenergic receptor agonistic potency as inhibition of forskolin-stimulated cyclic adenosine monophosphate synthesis; assay type: functional
T5 sequence (P18089 whole entry): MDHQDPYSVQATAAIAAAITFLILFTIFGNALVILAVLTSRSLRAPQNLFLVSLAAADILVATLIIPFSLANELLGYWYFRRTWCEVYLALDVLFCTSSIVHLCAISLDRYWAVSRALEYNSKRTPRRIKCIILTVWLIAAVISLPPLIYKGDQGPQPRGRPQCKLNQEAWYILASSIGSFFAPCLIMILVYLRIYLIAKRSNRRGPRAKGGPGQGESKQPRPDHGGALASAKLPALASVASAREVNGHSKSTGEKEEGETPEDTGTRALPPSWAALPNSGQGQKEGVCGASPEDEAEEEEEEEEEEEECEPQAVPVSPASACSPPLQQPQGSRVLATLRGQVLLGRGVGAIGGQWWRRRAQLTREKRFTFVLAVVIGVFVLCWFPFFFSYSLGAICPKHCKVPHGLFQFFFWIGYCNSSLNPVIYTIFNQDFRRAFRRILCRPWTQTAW

[6] = biological target: T6, Alpha-2C adrenergic receptor (Homo sapiens, UniProt P18825); experiment: Alpha-2C adrenergic receptor agonistic potency as inhibition of forskolin-stimulated cyclic adenosine monophosphate synthesis; assay type: functional
T6 sequence (P18825 whole entry): T1 sequence (whole entry)

[7] = biological target: T5, Alpha-2B adrenergic receptor; experiment: Binding affinity for human Alpha-2B adrenergic receptor from cultured LM(tk-) cells using [3H]- prazosin
[8] = biological target: T7, Alpha-1A adrenergic receptor (Homo sapiens, UniProt P35348); experiment: Binding affinity for human Alpha-1A adrenergic receptor from cultured LM(tk-) cells using [3H]-prazosin
T7 sequence (P35348 whole entry): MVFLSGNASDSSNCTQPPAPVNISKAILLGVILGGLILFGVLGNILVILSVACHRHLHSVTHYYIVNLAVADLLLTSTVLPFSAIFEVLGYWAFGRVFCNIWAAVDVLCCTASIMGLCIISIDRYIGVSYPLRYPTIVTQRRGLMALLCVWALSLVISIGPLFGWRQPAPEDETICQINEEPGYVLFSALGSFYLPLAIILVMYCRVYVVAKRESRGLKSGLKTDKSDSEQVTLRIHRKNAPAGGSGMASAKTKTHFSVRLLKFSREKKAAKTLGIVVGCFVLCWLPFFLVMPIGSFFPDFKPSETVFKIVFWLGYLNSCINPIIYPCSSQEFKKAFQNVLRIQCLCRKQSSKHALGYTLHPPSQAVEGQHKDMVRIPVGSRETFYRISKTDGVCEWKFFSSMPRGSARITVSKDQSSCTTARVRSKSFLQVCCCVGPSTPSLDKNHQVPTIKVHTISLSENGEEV

[9] = biological target: T8, Alpha-2A adrenergic receptor (Homo sapiens, UniProt P08913); experiment: Alpha-2A adrenergic receptor agonistic potency as inhibition of forskolin-stimulated synthesis of cyclic adenosine monophosphate; assay type: functional
T8 sequence (P08913 whole entry): T3 sequence (whole entry)

[10] = biological target: T8, Alpha-2A adrenergic receptor; experiment: Binding affinity for human Alpha-2A adrenergic receptor from cultured LM(tk-) cells using [3H]rauwolscine
[11] = biological target: T6, Alpha-2C adrenergic receptor; experiment: Binding affinity for human Alpha-2C adrenergic receptor from cultured LM(tk-) cells using [3H]- prazosin
[12] = biological target: T5, Alpha-2B adrenergic receptor; experiment: Binding affinity for human Alpha-2B adrenergic receptor from cultured Y-1 cells using [3H]rauwolscine; assay type: cell-based
[13] = biological target: T9, Alpha-2B adrenergic receptor (Homo sapiens) (UniProt P18089); experiment: Inhibitory activity against Alpha-2B adrenergic receptor relative to norepinephrine at 100 uM; Not active
T9 sequence (whole entry): T5 sequence (P18089 whole entry)

[14] = biological target: T9, Alpha-2B adrenergic receptor (Homo sapiens); experiment: The Alpha-2B adrenergic receptor agonistic potency for its ability to inhibit forskolin-stimulated synthesis of cyclic adenosine monophosphate at 100 uM concentration; Not active; assay type: functional
[15] = biological target: T1, Alpha-2C adrenergic receptor (Homo sapiens); experiment: Alpha-2C adrenergic receptor agonistic potency as inhibition of forskolin-stimulated cyclic adenosine monophosphate synthesis at 100 uM; Not active; assay type: functional
[16] = biological target: T1, Alpha-2C adrenergic receptor (Homo sapiens); experiment: Inhibitory activity against Alpha-2C adrenergic receptor relative to norepinephrine at 100 uM; Not active
[17] = biological target: T3, Alpha-2A adrenergic receptor (Homo sapiens); experiment: Alpha-2A adrenergic receptor agonistic potency as inhibition of forskolin-stimulated cyclic adenosine monophosphate synthesis at 100 uM; Not active; assay type: functional
[18] = biological target: T3, Alpha-2A adrenergic receptor (Homo sapiens); experiment: Inhibitory activity against Alpha-2A adrenergic receptor relative to norepinephrine at 100 uM; Not active
[19] = biological target: T1, Alpha-2C adrenergic receptor (Homo sapiens); settings: 100 uM
[20] = biological target: T5, Alpha-2B adrenergic receptor; experiment: Binding affinity for human alpha-2B adrenoceptor from cultured Y-1 cells using [3H]rauwolscine; assay type: cell-based
[21] = biological target: T9, Alpha-2B adrenergic receptor (Homo sapiens); settings: 100 uM
[22] = biological target: T9, Alpha-2B adrenergic receptor (Homo sapiens); experiment: Inhibitory activity against alpha-2B adrenoceptor relative to norepinephrine at 100 uM; Not active

Row | SMILES | Intrinsic activity [1] | Ki [2] | Intrinsic activity [3] | Ki [4] | EC50 [6] | Ki [8] | EC50 [9] | Ki [10] | Ki [11] | Ki [12] | Intrinsic activity [13] | Log EC50 [14] | Intrinsic activity [16] | other results
1 | Brc1c(NC2=NCCN2)ccc2nccnc12 [BRIMONIDINE] | 1 | 5370 nM | 1 | 933 nM |  |  |  |  |  |  |  |  |  | 
2 | Cc1c(NC2=NCCN2)ccc2nccnc12 | 1 | 3310 nM | 1 | 562 nM | 14.1 nM | 1480 nM | 1.2 nM | 7.24 nM | 28.2 nM |  |  |  |  | EC50 [5]: 77.6 nM; Ki [7]: 8.91 nM
3 | Clc1c(NC2=NCCN2)ccc2nccnc12 | 1 | 10500 nM | 1 | 2400 nM | 30.9 nM | 5130 nM | 2.34 nM | 37.2 nM | 195 nM | 69.2 nM |  |  |  | EC50 [5]: 174 nM
4 | Cc1cnc2c(Br)c(NC3=NCCN3)ccc2n1 | 0.8 | > 100000 nM | 1 | 5010 nM | 832 nM | > 100000 nM | 851 nM | 74.1 nM | 646 nM | 324 nM | inactive | inactive |  | 
5 | CC1CN=C(Nc2ccc3nccnc3c2Br)N1 (stereo unspecified) | 0.8 | > 100000 nM | 0.8 | 5010 nM | 832 nM | > 100000 nM | 15800 nM | 3800 nM | 646 nM | 3240 nM | inactive | inactive |  | 
6 | Brc1c(NC2=N[C@@H]3CCCC[C@@H]3N2)ccc2nccnc12 |  | 105000 nM |  | 41700 nM |  | 14100 nM |  | 14800 nM | 11500 nM | 18200 nM | inactive | inactive | inactive | Log EC50 [15]: inactive; Log EC50 [17]: inactive; Intrinsic activity [18]: inactive
7 | c1cnc2cc(NC3=NCCN3)ccc2n1 |  | 3240 nM |  | 12300 nM |  | 18200 nM |  | 309 nM | 1410 nM | 219 nM | inactive | inactive | inactive | Log EC50 [19]: inactive; Log EC50 [17]: inactive; Intrinsic activity [18]: inactive
8 | Brc1c(NC2=NCCO2)ccc2nccnc12 |  | 141000 nM |  | 102000 nM |  | 91200 nM |  | 26300 nM | 49000 nM | 85100 nM | inactive | inactive | inactive | Log EC50 [15]: inactive; Log EC50 [17]: inactive; Intrinsic activity [18]: inactive
9 | Brc1c(NC2=NCCS2)ccc2nccnc12 |  | 60300 nM | 0.9 | 27500 nM |  | 21400 nM | 2750 nM | 10200 nM | 28200 nM | 17400 nM | inactive | inactive | inactive | Log EC50 [15]: inactive
10 | Ic1c(NC2=NCCN2)ccc2nccnc12 | 1 | 1910 nM | 1 | 282 nM | 55 nM | 977 nM | 11.5 nM | 6.76 nM | 407 nM |  |  |  |  | Ki [20]: 42.7 nM; Log EC50 [21]: inactive; Intrinsic activity [22]: inactive
11 | Brc1c(NC2=NCCN2)ccc2c1NCCN2 | 1 | 4370 nM | 1 | 2690 nM | 105 nM | 1120 nM | 2.82 nM | 6.46 nM | 214 nM | 49 nM |  |  |  | EC50 [5]: 891 nM
